Experimental findings from publication PMC11018795, “The regulatory relationship between NAMPT and PD-L1 in cancer and identification of a dual-targeting inhibitor” (EMBO Molecular Medicine, 2024) are described below.

Several values for one entry are separate records, joined by “and”; a condition that tells them apart may be missing. Identical values can stand only once.

The test system of series [1] is pyruvate content of A549 cells. Kind of series: Pyruvate (PA) content, A549 cells with or without PBMC. The following applies: listed as BM202. The arrangement: unit not given beside the values. The class given is cell-based, human. From the text: Supplement 44321_2024_51_MOESM3_ESM.zip/Fig-2-K-PA.xlsx, sheet "Sheet1" | column: A549
The subject of series [2] is pyruvate content of A549 KO HIF-1α cells. Nature of the series: Pyruvate (PA) content, A549 KO HIF-1α cells with or without PBMC. The arrangement: unit not given beside the values. The class given is cell-based, human. The following applies: listed as BM202. From the text: Supplement 44321_2024_51_MOESM3_ESM.zip/Fig-2-K-PA.xlsx, sheet "Sheet1" | column: A549 KO HIF-1α

For series [3], the system named is glycolytic genes in A549 KO HIF-1α cells. Kind of series: RT-PCR of glycolytic genes, A549 KO HIF-1α cells co-cultured with PBMC. In kind it is cell-based, human. To be noted: A549 KO HIF-1α co-cultured with PBMC; listed as B202. How it is done: (§1) Total RNA was isolated using TRIzol reagent (Invitrogen, 15596026) according to the manufacturer's protocol. First-strand cDNA synthesis was performed using a RevertAid First Strand cDNA Synthesis Kit (Thermo Fisher, […]). Quantitative real-time PCR analysis was performed by mixing 10 μl SYBR, 0.4 μM forward primer, 0.4 μM reverse primer, 1 μl cDNA, and 8.2 μl distilled water per sample with Top Green qPCR SuperMix (Transgene, AQ601-04) by the manufacturer's protocols. GAPDH was used as an endogenous control. All qRT-PCRs were set up in triplicate using three biological replicates for each sample. Primer information is shown in Appendix Table S1.

Series [4] concerns NAD+ content of LLC cells. Nature of the series: NAD+ content in LLC cells with or without T cells. To be noted: listed as BM202. The arrangement: unit not given here. In kind it is cell-based, mouse. Here is the method:
(§2) NAD^+ assays were performed to quantify the total NAD^+ content. NAD^+ assay was performed using the NAD/NADH Assay Kit (ab65348; Abcam) according to the manufacturer’s recommended protocol.

The test system of series [5] is pyruvate content of LLC cells. Nature of the series: Pyruvate (PA) content in LLC cells with or without T cells. The following applies: listed as B202. The arrangement: unit not given beside the values. In kind it is cell-based, mouse. From the text:
Supplement 44321_2024_51_MOESM3_ESM.zip/Fig-2-G.xlsx, sheet "Sheet1" | column: "-T cells; "+T cells

In series [6] the test system is IFN-γ and TNF-α secretion, LLC cells co-cultured with T cells. Kind of series: ELISA of IFN-γ and TNF-α, LLC cells under co-culture condition. The class given is cell-based, mouse. Details: unit not given here. To be noted: in vitro, listed as B202.
For series [7], the system named is glycolytic genes in A549 cells. Nature of the series: RT-PCR of glycolytic genes, A549 cells co-cultured with PBMC. In kind it is cell-based, human. The arrangement: key to Aldoa mRNA level / Eno1 mRNA level / HK2 mRNA level / Glut1 mRNA level: relative mRNA level normalized to GAPDH (endogenous control). The following applies: listed as B202. Here is the method: as §1

For series [8], the system named is NAD+ content of A549 cells. Nature of the series: NAD+ content, A549 cells with or without PBMC. The class given is cell-based, human. Details: unit not given here. The following applies: listed as BM202. Here is the method:
as §2

In series [9] the test system is glycolytic genes in LLC cells. Nature of the series: RT-PCR of glycolytic genes in LLC cells with or without T cells. The class given is cell-based, mouse. Details: key to HK2 mRNA level / Glut1 mRNA level / Aldoa mRNA level / Eno1 mRNA level: relative mRNA level normalized to GAPDH (endogenous control). To be noted: listed as B202. Here is the method: as §1
For series [10], the system named is NAD+ content of A549 KO HIF-1α cells. Kind of series: NAD+ content, A549 KO HIF-1α cells with or without PBMC. The arrangement: unit not given here. In kind it is cell-based, human. To be noted: listed as BM202. How it is done:
as §2

The next series concerns A20 tumors. Kind of series: A20 tumor-bearing Balb/c mice. The class given is in vivo, mouse. To be noted: A20 model; FK866 20 mg/kg, LZFPN-90 20 and 40 mg/kg i.p.
Series [11] deals with LLC OE NAMPT/PD-L1 tumors. Kind of series: LLC OE NAMPT/PD-L1 tumor-bearing C57BL/6 mice. In kind it is in vivo, mouse. To be noted: 20 mg/kg i.p.; 14 days; Fig 7B.
For series [12], the system named is NAD+ content of LLC OE NAMPT/PD-L1 tumor tissue. Kind of series: NAD+ in tumor tissue, LLC OE NAMPT/PD-L1 mouse model. The class given is in vivo. To be noted: 20 mg/kg; tumor tissue.
For series [13], the system named is PD-L1 expression in A2780 and LLC cells. Nature of the series: PD-L1 expression (western blot, flow cytometry, qRT-PCR) in A2780 and LLC cells. The class given is cell-based, human, mouse. To be noted: 72 h. Here is the method: For surface marker detection, tumor single-cell suspensions and spleen lymphocytes were incubated at 4 °C for 30 min in PBS with 0.1% Fixable Viability Dye (eBioscience 65-0863-14). Cells were washed and incubated in staining buffer (PBS with 1% FBS) with surface marker antibodies, the dilution ratio of all flow antibodies was 1:200 (BioLegend, CD3-APC 100235, CD3-PE 100205, CD4-FITC 100405, CD8-APC 100711, CD8-PE 100707, CD45-APC 103112, PD-L1-PE 124307, adsorbed secondary antibody-APC, and CD69-PE 104511). The cells were then washed and resuspended in staining buffer for flow cytometry. For cytokine detection, tumor single-cell suspensions and spleen lymphocytes were incubated in RPMI-1640 with 10% FBS and 0.2% Cell Stimulation Cocktail (plus protein transport inhibitors) (eBioscience 00-4975-93) at 37 °C for 12 h. […] Flow cytometry was performed on ACEA NovoCyte, and the data were analyzed using NovoExpress. […]
Total RNA was isolated using TRIzol reagent (Invitrogen, 15596026) according to the manufacturer’s protocol. […] Quantitative real-time PCR analysis was performed by mixing 10 μl SYBR, 0.4 μM forward primer, 0.4 μM reverse primer, 1 μl cDNA, and 8.2 μl distilled water per sample with Top Green qPCR SuperMix (Transgene, AQ601-04) by the manufacturer’s protocols. […]

Series [14] relates to NAD+ content of A2780 cells. Kind of series: NAD+ assay in A2780 cells. In kind it is cell-based, human. Here is the method:
as §2

As to `COc1nc(OCc2cccc(-c3ccccc3)c2C)ccc1CNCCNC(C)=O` [BMS202], the “content of pyruvate (PA)” value in series [1] (+PBMC) is 0.2451 and 0.2361 and 0.2328; in series [1] (-PBMC) it was 0.1485 and 0.1357 and 0.1294; in [2] (+PBMC), 0.1117 and 0.1102 and 0.1239; in [2] (-PBMC) it was 0.09589 and 0.0979 and 0.1044; in series [5] (+T Cells), 0.5383 and 0.5346 and 0.5309; in series [5] (-T Cells) it was 0.3322 and 0.3345 and 0.3513. The “Aldoa mRNA level” value in series [3] is 0.4841 and 0.4127 and 0.7087; in series [7] it was 1.286 and 1.53 and 1.628; in series [9] (-T Cells), 0.06048 and 0.109 and 0.06804. The “Eno1 mRNA level” value in series [3] is 0.9159 and 1.082 and 0.8085; in series [7], 1.184 and 1.457 and 1.192; in series [9] (+T Cells), 3.494 and 3.959 and 2.858; in series [9] (-T Cells), 0.7778 and 1.3449 and 0.7359. Further, the “HK2 mRNA level” value in series [3] was 0.02498 and 0.01465 and 0.021; in series [7] it was 4.691 and 5.816 and 5.352; in series [9] (+T Cells) it was 2.644 and 2.833 and 1.744; in [9] (-T Cells) it was 1.261 and 1.177 and 0.9693. Further, the “Pfk1 mRNA level” value is 0.7631 and 0.9395 and 1 in series [3]; 1.211 and 0.6057 in [7]; 5.686 and 6.904 in series [9] (+T Cells). Further, the “content of NAD+” value in series [4] (taken as +T cells by analogy with Fig 2G) is 6.047 and 6.219 and 6.464; in series [4] (taken as -T cells by analogy with Fig 2G), 11.761 and 12.9475 and 11.7876; in [8] (+PBMC), 8.982 and 8.901 and 8.955; in series [8] (-PBMC), 11.875 and 11.7227 and 11.9827; in [10] (+PBMC), 10.2853 and 11.0822 and 11.211; in series [10] (-PBMC), 12.9598 and 12.8438 and 11.842. Moreover, in series [6], the “IFN-γ (ELISA)” value was 155.867 and 141.57 and 156.336. The “TNF-α (ELISA)” value in series [6] was 199.656 and 157.29 and 212.022. Besides, the “Glut1 mRNA level” value in series [7] was 1.195 and 1.4406 and 1.289; in series [9] (-T Cells), 0.3392 and 0.2003 and 0.2483.
Take `O=C(/C=C/c1cccnc1)NCCCCC1CCN(C(=O)c2ccccc2)CC1` [FK866, reference compound]: the “effect on mouse organ or body weight” value with A20 tumors is “caused a reduction in the body weight of the mice”. Moreover, in series [11], the “TIR / tumor growth inhibition (TGI) rate at endpoint” value is 43.62%. For the same molecule, the “NAD+ in 20 mg tissue” value in series [12] was 98.7342 and 119.831 and 110.802. In series [13], the “effect on PD-L1 expression” value is “upregulated global and membrane PD-L1 expression”.
On to `NC(=O)c1ccc[n+]([C@@H]2O[C@H](COP(=O)([O-])O)[C@@H](O)[C@H]2O)c1` [NMN, nicotinamide mononucleotide], for which the “Relative NAD+” value in [14] (NMN 1 μM added to LZFPN-90 (NMN 0 μM values equal those of 5 nM LZFPN-90)) is 79.1005 and 77.5282; in series [14] (NMN 5 μM added to LZFPN-90), 81.63 and 81.9669; in [14] (NMN 10 μM added to LZFPN-90), 85.5982 and 82.7424; in series [14] (NMN 20 μM added to LZFPN-90) it was 92.0905 and 93.6414; in series [14] (NMN 40 μM added to LZFPN-90), 91.3204 and 94.481.
For `CC(NC(=O)c1ccccc1/N=C/c1c(O)ccc2ccccc12)c1ccccc1` (stereo not shown) [Sirtinol], the “effect on PD-L1 expression” value in series [13] is “PD-L1 was upregulated at both the mRNA and protein levels”.
